Laboratory results from patent US9682141B2, “Combination of kinase inhibitors and uses thereof” (INTELLIKINE LLC, priority 2011, dated 2017).
Where two headings read alike, the source gives them in different places.

How the values were obtained:
Type in all cases: biochemical
PI3K β = PI3K β (Homo sapiens (Human), UniProt P42338); assay: PI 3-Kinase (human) HTRF assay, p110β/p85α
PI3K α = PI3K α (Homo sapiens (Human), UniProt P42336); assay: PI 3-Kinase (human) HTRF assay, p110α/p85α
PI3K δ = PI3K δ (Homo sapiens (Human), UniProt O00329); assay: PI 3-Kinase (human) HTRF assay, p110δ/p85α
PI3K γ = PI3K γ (Homo sapiens (Human), UniProt P48736); assay: PI 3-Kinase (human) HTRF assay, p110γ
[1] = PI 3-Kinase (human) HTRF assay, p110δ/p85α; settings: read-out: PI3K γ IC50

Chain of PI3K β (P42338 whole entry): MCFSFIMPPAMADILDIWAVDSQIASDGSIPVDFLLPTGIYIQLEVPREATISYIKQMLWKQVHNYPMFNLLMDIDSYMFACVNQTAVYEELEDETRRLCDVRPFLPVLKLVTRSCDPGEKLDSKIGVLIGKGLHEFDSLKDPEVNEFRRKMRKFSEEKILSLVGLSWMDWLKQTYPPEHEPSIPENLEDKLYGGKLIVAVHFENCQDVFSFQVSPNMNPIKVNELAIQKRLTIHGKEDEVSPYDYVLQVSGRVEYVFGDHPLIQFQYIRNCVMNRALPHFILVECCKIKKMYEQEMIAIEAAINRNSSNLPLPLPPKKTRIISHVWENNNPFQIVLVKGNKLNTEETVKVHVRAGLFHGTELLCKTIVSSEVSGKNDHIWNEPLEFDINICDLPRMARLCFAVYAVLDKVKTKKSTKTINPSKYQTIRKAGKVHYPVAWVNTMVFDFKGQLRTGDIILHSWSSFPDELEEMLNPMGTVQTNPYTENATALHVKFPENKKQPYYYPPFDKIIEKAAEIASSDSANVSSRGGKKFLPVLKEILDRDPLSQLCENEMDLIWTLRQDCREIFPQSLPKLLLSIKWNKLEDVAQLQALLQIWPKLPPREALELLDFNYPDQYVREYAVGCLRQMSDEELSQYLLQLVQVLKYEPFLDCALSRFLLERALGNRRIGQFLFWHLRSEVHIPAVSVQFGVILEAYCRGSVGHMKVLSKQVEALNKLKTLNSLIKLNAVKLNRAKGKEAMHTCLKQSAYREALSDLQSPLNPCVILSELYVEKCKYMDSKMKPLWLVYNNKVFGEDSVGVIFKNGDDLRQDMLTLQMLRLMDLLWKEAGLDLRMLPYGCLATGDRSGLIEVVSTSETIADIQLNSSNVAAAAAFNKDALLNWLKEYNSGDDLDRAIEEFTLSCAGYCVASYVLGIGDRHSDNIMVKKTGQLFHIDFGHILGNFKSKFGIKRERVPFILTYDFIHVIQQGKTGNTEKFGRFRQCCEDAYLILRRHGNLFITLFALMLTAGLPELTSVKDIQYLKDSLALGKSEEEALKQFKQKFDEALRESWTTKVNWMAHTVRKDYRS
Chain of PI3K β (P27986 whole entry partner): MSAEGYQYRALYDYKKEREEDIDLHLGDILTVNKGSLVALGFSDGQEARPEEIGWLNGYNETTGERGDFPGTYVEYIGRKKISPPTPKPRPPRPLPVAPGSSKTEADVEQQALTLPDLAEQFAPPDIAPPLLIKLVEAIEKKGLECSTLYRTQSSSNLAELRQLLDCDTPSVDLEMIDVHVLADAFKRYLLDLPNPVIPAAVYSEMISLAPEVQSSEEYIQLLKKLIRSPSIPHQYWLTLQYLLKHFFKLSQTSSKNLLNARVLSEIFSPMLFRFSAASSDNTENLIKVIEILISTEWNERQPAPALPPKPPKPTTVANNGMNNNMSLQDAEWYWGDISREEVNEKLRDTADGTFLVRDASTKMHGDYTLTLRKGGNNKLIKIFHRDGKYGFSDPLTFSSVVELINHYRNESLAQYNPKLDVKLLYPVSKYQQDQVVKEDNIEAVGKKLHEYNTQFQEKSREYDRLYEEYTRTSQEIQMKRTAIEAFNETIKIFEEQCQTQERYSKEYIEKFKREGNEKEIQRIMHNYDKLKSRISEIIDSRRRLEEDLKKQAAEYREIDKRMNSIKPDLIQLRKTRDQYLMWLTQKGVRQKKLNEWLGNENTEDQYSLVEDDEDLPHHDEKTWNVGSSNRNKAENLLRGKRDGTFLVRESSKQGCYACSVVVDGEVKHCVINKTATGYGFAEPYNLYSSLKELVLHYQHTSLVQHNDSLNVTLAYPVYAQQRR
Chain of PI3K δ (O00329 whole entry): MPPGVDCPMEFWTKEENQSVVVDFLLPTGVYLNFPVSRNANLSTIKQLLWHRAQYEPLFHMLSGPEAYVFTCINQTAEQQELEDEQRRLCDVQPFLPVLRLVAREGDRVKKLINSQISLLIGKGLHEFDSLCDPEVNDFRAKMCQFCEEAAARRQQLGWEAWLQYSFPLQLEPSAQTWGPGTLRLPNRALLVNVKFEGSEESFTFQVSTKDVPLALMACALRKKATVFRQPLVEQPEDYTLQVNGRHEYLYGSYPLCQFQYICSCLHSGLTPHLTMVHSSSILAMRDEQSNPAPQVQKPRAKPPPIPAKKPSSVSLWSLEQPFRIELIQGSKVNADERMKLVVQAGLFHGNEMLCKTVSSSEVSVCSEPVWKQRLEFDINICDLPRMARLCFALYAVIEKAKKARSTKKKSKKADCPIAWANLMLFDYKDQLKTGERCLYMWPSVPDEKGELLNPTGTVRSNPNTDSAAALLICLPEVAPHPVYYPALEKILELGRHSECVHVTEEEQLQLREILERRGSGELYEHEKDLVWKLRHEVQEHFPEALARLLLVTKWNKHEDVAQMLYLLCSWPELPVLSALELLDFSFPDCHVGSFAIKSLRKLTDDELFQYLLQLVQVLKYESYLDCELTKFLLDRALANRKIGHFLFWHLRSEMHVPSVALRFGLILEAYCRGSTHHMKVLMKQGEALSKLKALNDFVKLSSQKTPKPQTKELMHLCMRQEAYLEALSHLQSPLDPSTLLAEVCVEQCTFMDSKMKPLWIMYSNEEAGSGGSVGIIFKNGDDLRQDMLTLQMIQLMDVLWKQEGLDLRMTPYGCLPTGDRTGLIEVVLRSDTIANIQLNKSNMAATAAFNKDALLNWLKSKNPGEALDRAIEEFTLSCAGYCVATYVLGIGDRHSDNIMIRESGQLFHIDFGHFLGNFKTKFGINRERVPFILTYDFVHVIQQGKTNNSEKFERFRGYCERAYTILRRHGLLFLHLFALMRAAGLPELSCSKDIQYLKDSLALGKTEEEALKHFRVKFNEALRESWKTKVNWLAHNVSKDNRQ
Chain of PI3K δ (P27986 whole entry partner): as the sequence (P27986 whole entry partner) above
Chain of PI3K α (P42336 whole entry): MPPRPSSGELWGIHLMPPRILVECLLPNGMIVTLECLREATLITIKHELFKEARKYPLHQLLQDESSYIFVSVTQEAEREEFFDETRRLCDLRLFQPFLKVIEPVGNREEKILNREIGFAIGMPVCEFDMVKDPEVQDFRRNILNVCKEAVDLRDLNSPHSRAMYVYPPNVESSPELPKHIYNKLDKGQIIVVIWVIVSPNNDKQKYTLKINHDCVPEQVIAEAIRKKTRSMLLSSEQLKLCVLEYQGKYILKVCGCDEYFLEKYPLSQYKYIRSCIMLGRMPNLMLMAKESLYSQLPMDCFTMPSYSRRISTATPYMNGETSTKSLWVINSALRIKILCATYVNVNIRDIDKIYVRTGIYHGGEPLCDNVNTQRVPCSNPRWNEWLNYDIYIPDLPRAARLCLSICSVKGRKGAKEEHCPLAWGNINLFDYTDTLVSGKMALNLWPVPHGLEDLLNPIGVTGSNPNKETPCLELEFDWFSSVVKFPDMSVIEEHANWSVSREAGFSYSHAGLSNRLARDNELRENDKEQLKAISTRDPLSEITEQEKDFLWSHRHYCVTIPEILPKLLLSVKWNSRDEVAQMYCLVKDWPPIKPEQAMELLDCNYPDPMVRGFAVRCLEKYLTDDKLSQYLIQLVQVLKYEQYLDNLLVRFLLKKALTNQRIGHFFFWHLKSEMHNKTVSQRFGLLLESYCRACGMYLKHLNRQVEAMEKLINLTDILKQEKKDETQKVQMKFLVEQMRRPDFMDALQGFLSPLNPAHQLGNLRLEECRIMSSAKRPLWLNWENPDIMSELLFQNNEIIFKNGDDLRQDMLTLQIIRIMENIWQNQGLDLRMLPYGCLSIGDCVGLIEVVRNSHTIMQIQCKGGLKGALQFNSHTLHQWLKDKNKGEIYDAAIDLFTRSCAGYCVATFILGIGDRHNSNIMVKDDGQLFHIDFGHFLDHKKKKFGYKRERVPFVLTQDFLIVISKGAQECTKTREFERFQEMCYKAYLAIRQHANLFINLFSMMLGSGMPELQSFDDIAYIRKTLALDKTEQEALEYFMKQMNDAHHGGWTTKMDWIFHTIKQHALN
Chain of PI3K α (P27986 whole entry partner): as the sequence (P27986 whole entry partner) above

Row | Structure (SMILES) | IC50 (PI3K β) [µM] | IC50 (PI3K α) [nM] | IC50 (PI3K δ) [nM] | IC50 (PI3K γ; read-out: PI3K γ IC50) [nM] | IC50 [1] [µM] | IC50 (PI3K γ; read-out: PI3K δ IC50) [nM]
1 | Cc1nc2ccc(-c3ccc4oc(N)nc4c3)cn2c1C(=O)N1CCN(C)CC1 | > 10 | > 10000 | > 10000 | > 10000 | – | –
2 | C[C@H]1CN(c2cnc3ccc(-c4ccc5oc(N)nc5c4)nc3n2)CCN1 | < 0.1 | < 1000 | < 10000 | < 10000 | – | –
3 | Nc1nc2cc(-c3ccc4ncc(N[C@H]5CC[C@H](O)CC5)nc4c3)ccc2o1 | < 10 | < 100 | < 100 | < 100 | – | –
4 | CN1CCN(C(=O)c2cnc3ccc(-c4ccc5nc(N)sc5c4)cn23)CC1 | < 10 | < 10000 | > 10000 | > 10000 | – | –
5 | Nc1nc2cc(-c3ccc4ncc(N5CC(N6CC7CCC(C6)O7)C5)nc4n3)ccc2o1 | > 10 | < 1000 | > 10000 | < 10000 | – | –
6 | Nc1nc2cc(-c3ccc4ncc(C#CC5CC5)n4c3)ccc2o1 [Compound 39] | – | < 100 | < 100 | < 100 | – | –
7 | Nc1nc2cc(-c3ccc4ncnc(N5CCC(O)CC5)c4c3)ccc2o1 [Compound 29] | – | < 100 | < 100 | < 100 | – | –
8 | CN1CCC(Oc2ncnc3ccc(-c4ccc5oc(N)nc5c4)cc23)CC1 [Compound 34] | – | < 100 | < 1000 | < 100 | – | –
9 | Nc1nc2cc(-c3ccc4nccc(-c5cccnc5)c4c3)ccc2o1 [Compound 31] | – | < 100 | < 100 | < 100 | – | –
10 | CN1CCN(c2cc(-c3cnc4ccc(-c5ccc6oc(N)nc6c5)cn34)ccn2)CC1 [Compound 43] | – | < 100 | < 100 | < 100 | – | –
11 | CN(C(=O)c1cnc2ccc(-c3ccc4oc(N)nc4c3)cn12)C1CCOCC1 | < 10 | < 100 | – | – | < 10 | < 1000
12 | Cc1nccn1C1CCN(c2cnc3ccc(-c4ccc5oc(N)nc5c4)cc3n2)CC1 | < 10 | < 100 | – | – | < 1 | < 10000
13 | Nc1noc2cc(-c3ccc4ncc(C(=O)N5CCOCC5)n4c3)ccc12 | > 10 | > 10000 | – | – | > 10 | > 10000
14 | CN(C)C1CCN(C(=O)c2cnc3ccc(-c4ccc5oc(N)nc5c4)cn23)CC1 | > 10 | < 1000 | – | – | > 10 | > 10000
15 | Nc1nc2cc(-c3ccc4ncc(N5CC(O)C5)nc4c3)ccc2o1 | < 1 | < 100 | – | – | < 10 | < 100
16 | CNS(=O)(=O)c1cncc(-c2ccc3ncc(C(=O)N4CCOCC4)n3c2)c1 | > 10 | < 10000 | – | – | > 10 | > 10000
17 | Nc1nc2cc(-c3ccc4ncn(CCN5CCCC5)c(=O)c4c3)ccc2o1 | < 10 | < 10000 | – | – | < 10 | < 10000
18 | Nc1noc2c(-c3ccc4ncc(C(=O)N5CCOCC5)n4c3)cccc12 | > 10 | > 10000 | – | – | > 10 | > 10000
19 | Nc1nc2cc(-c3ccc4ncc(C(=O)N5CC[C@@H](O)C5)n4c3)ccc2o1 | < 10 | < 100 | – | – | < 10 | < 100
20 | Nc1nc2ccc(-c3ccc4nnc(-c5ccncc5)n4c3)cc2o1 | < 1 | < 10000 | – | – | < 10 | < 1000
21 | CN1CCC(c2cnc3ccc(-c4ccc5oc(N)nc5c4)cc3n2)CC1 | < 10 | < 100 | – | – | > 10 | > 10000
22 | Nc1nc2cc(-c3ccc4ncc(N5CCC(O)C5)nc4c3)ccc2o1 (stereo not shown) | < 1 | < 100 | – | – | < 10 | < 100
23 | CC(C)(N)C(=O)N1CCN(c2cnc3ccc(-c4ccc5oc(N)nc5c4)cc3n2)CC1 | < 1 | < 100 | – | – | < 1 | > 10000
24 | Nc1nc2cc(-c3ccc4sc(N)nc4c3)cc(F)c2o1 | < 1 | < 10000 | – | – | > 10 | < 1000

More lines, now with the values ahead:

Row | IC50 (PI3K β) [µM] | IC50 (PI3K α) [nM] | IC50 (PI3K δ) [nM] | IC50 (PI3K γ; read-out: PI3K γ IC50) [nM] | IC50 [1] [µM] | IC50 (PI3K γ; read-out: PI3K δ IC50) [nM] | Structure (SMILES)
25 | < 10 | < 1000 | < 10000 | < 10000 | – | – | Nc1nc2cc(-c3ccc4ncc(C(=O)N5CCC(N6CCOCC6)CC5)n4c3)ccc2o1
26 | < 1 | < 100 | > 10000 | < 100 | – | – | Nc1nc2cc(-c3ccc4ncc(N5CCOCC5)nc4n3)ccc2o1
27 | < 10 | < 100 | < 100 | < 100 | – | – | Nc1nc2cc(-c3ccc4ncnc(NC5CCN(C(=O)C6CC6)CC5)c4c3)ccc2o1
28 | < 10 | < 1000 | > 10000 | < 100 | – | – | Nc1nc2cc(-c3ccc4ncc(-c5ccccn5)nc4c3)ccc2o1
29 | < 0.1 | < 100 | < 100 | – | – | – | Nc1nc2cc(-c3ccc4nccc(-c5cn[nH]c5)c4c3)ccc2o1 [Compound 20]
30 | – | < 100 | < 1000 | < 100 | – | – | Nc1nc2cc(-c3ccc4nccc(N5CCOCC5)c4c3)ccc2o1 [Compound 28]
31 | < 1 | – | < 1000 | < 100 | – | – | Nc1nc2cccc(-c3ccc4nccc(-c5ccncc5)c4c3)c2s1 [Compound 17]
32 | – | < 100 | < 100 | < 100 | – | – | Nc1nc2cc(-c3ccc4ncc(-c5cccnc5)n4c3)ccc2o1 [Compound 37]
33 | – | < 100 | < 100 | < 100 | – | – | CN1CCN(c2cc(-c3ccnc4ccc(-c5ccc6oc(N)nc6c5)cc34)ccn2)CC1 [Compound 30]
34 | – | < 1000 | < 10000 | < 100 | – | – | Nc1nc2cc(-c3ccc4nccc(CCN5CCOCC5)c4c3)ccc2o1 [Compound 27]
35 | – | < 100 | < 1000 | < 1000 | – | – | Nc1nc2cc(-c3ccc4nccc(NCCN5CCOCC5)c4c3)ccc2o1 [Compound 33]
36 | – | < 100 | < 100 | < 100 | – | – | Nc1nc2cc(-c3ccc4ncc(-c5cn[nH]c5)n4c3)ccc2o1 [Compound 38]
37 | > 10 | < 10000 | – | – | > 10 | > 10000 | Nc1nc2cc(-c3cc(F)c4ncc(C(=O)N5CCOCC5)n4c3)ccc2o1
38 | < 1 | < 100 | – | – | < 10 | < 100 | Nc1nc2cc(-c3ccc4ncc(N5CC(N6CCNC(=O)C6)C5)nc4c3)ccc2o1
39 | – | < 10000 | > 10000 | > 10000 | – | – | CC(=O)N1CCC(n2cnc3ccc(-c4ccc5oc(N)nc5c4)cc3c2=O)CC1
40 | < 10 | < 100 | – | – | < 10 | < 1000 | Nc1nc2cc(-c3ccc4ncc(C(=O)N5CC(N6CC[C@H](O)C6)C5)n4c3)ccc2o1
41 | > 10 | > 10000 | – | – | > 10 | < 100 | CC(=O)Nc1nc2cc(-c3ccc4oc(N)nc4c3)ccc2s1

Row | IC50 (PI3K β) [µM] | IC50 (PI3K α) [nM] | IC50 (PI3K δ) [nM] | IC50 (PI3K γ; read-out: PI3K γ IC50) [nM] | IC50 [1] [µM] | IC50 (PI3K γ; read-out: PI3K δ IC50) [nM] | Structure (SMILES)
42 | > 10 | < 10000 | – | – | > 10 | > 10000 | Nc1nc2ccc(-c3cc(F)c4ncc(C(=O)N5CCOCC5)n4c3)cc2o1
43 | < 1 | < 100 | – | – | < 10 | < 10000 | CN1CCN([C@H]2CCN(c3cnc4ccc(-c5ccc6oc(N)nc6c5)cc4n3)C2)CC1
44 | > 10 | > 10000 | – | – | > 10 | > 10000 | Cc1c(-c2ccc3ncc(N4CC(N5CCOCC5)C4)nc3c2)ccc2oc(N)nc12
45 | > 10 | > 10000 | – | – | > 10 | > 10000 | C[C@H]1CN(c2cnc3ccc(-c4cccc5c(N)noc45)cc3n2)CCN1
46 | – | < 10000 | > 10000 | < 10000 | – | – | Nc1nc2cc(-c3ccc4nccc(NC5CCOCC5)c4c3)ccc2o1 [Compound 32]
47 | > 10 | < 10000 | – | – | > 10 | > 10000 | Nc1ncc(-c2ccc3ncc(C(=O)N4CCOCC4)n3c2)cc1C(F)(F)F
48 | < 1 | < 1000 | – | – | > 10 | > 10000 | C[C@H]1CN(c2cnc3ccc(-c4ccc5sc(N)nc5c4)cc3n2)CCN1
49 | > 10 | < 100 | – | – | > 10 | < 100 | Nc1nc2cc(-c3ccc4ncc(N5CCN(CC(F)(F)F)CC5)nc4c3)ccc2o1
50 | > 10 | > 10000 | – | – | > 10 | > 10000 | O=C(c1cnc2ccc(-c3cccc(S(=O)(=O)Nc4ccccc4)c3)cn12)N1CCOCC1
51 | < 10 | < 100 | – | – | < 1 | < 1000 | Nc1nc2cc(-c3ccc4ncc(N5CC(C(=O)N6CCN(CC7CC7)CC6)C5)nc4c3)ccc2o1
52 | > 10 | < 100 | – | – | < 10 | < 100 | Nc1nc2cc(-c3ccc4ncc(C(=O)N5CC[C@@H](F)C5)n4c3)ccc2o1
53 | < 10 | < 100 | – | – | > 10 | < 1000 | C[C@@H]1COCCN1C(=O)c1cnc2ccc(-c3ccc4oc(N)nc4c3)cn12
54 | < 0.1 | < 1000 | – | – | < 10 | > 10000 | Cc1c(-c2ccc3oc(N)nc3c2)ccc2ncc(N3CCN[C@@H](C)C3)nc12
55 | < 0.1 | < 100 | – | – | < 10 | < 1000 | CNC(=O)C1CN(c2cnc3ccc(-c4ccc5oc(N)nc5c4)cc3n2)C1
56 | > 10 | > 10000 | – | – | > 10 | > 10000 | Nc1nc2cc(-c3ccc4nc(N)c(N5CC(N6CCOCC6)C5)nc4c3)ccc2o1
57 | < 10 | < 100 | – | – | < 10 | < 1000 | NC(=O)[C@H]1CCCN1C(=O)C1CN(c2cnc3ccc(-c4ccc5oc(N)nc5c4)cc3n2)C1
58 | > 10 | < 1000 | – | – | > 10 | < 1000 | Nc1nc2cc(-c3ccc4ncn(C5CC5)c(=O)c4c3)ccc2o1
